Test results reported in ChEMBL document CHEMBL1152289, “Antithyroid drug carbimazole and its analogues: synthesis and inhibition of peroxidase-catalyzed iodination of L-tyrosine” (J Med Chem, 2008).
pIC50: −log10 of the molar value.

Molecular target: Lactoperoxidase (Homo sapiens, UniProt P22079)
Assay: Inhibition of lactoperoxidase-catalyzed iodination of L-tyrosine assessed as 3,5-diiodo-L-tyrosine formation by HPLC

Lactoperoxidase, sequence (P22079 whole entry): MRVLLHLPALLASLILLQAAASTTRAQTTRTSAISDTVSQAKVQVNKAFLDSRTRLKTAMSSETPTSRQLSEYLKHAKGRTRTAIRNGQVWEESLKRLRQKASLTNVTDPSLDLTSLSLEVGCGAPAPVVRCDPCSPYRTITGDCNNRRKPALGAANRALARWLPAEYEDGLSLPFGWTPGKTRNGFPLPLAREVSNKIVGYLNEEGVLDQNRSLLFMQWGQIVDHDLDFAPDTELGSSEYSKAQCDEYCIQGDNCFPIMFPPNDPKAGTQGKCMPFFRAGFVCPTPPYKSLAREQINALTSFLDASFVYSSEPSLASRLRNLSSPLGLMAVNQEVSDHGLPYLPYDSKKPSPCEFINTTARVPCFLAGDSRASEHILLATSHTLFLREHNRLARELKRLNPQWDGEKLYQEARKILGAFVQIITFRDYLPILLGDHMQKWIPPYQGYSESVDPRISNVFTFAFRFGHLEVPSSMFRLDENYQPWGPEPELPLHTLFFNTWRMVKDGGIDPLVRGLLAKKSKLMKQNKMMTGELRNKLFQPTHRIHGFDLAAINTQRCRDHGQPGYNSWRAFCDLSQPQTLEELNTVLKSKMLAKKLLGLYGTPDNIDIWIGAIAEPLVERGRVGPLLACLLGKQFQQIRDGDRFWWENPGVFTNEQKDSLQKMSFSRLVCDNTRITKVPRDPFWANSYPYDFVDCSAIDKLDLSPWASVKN

| pIC50 | Structure (SMILES) |
| --- | --- |
| 4.97 | COC(=O)n1ccn(C)c1=S |
| 4.69 | CCOC(=O)n1ccn(CC)c1=S |
| 4.71 | CCn1ccn(C(=O)OC)c1=S |

Continued, compound first:

| Structure (SMILES) | pIC50 |
| --- | --- |
| CCOC(=O)n1ccn(CC)c1=[Se] | 4.67 |
| CCOC(=O)n1ccn(C)c1=[Se] | 5.00 |
| CCn1ccn(C(=O)OC)c1=[Se] | 4.60 |
| COC(=O)n1ccn(C)c1=[Se] | 4.71 |
| CCOC(=O)n1ccn(C)c1=S [CARBIMAZOLE] | 4.98 |
| Cn1cc[nH]c1=S [METHIMAZOLE] | 4.93 |
